Measurements taken from US20130011427A1 (priority 2009, published 2013).

Columns and labels:
[1] = system: HLA-DR2 (DRB1*1501) Tg mice, CD8-depleted splenocytes; assay type: cell-based, mouse
[2] = system: HLA-A2.1 (HLA-A*0201) Tg mice, CD4-depleted splenocytes; assay type: cell-based, mouse
[3] = target: HLA-A2.1 (HHD monochain) (human; murine); assay: cell-based or functional assay
[4] = target: HLA-DR2 (chimeric HLA-DRA1*0101/DRB1*1501 with I-E domains) (human; murine) (UniProt Q8BHN5); assay: cell-based or functional assay
Sequence of UniProt Q8BHN5 (Q8BHN5 whole entry, stated change not applied): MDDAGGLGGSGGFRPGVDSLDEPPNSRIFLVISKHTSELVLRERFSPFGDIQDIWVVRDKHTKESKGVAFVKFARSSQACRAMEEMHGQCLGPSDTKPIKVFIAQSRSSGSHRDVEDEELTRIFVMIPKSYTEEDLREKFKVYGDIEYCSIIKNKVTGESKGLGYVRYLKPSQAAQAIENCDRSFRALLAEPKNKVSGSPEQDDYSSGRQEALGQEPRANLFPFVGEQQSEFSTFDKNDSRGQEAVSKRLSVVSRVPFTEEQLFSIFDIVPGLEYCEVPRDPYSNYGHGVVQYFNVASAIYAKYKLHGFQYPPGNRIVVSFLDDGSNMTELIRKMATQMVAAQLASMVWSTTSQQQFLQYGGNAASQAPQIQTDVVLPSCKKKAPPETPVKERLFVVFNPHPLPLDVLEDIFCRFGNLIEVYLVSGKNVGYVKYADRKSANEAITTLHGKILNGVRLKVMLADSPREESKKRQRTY

AAQRRGRIGRNPSQV [NS3 455-469]
T cell activation of HLA transgenic mice (SFC/10^6) IFN-γ ELISpot, DR2 [1]: 200 ± 27 SFC/10^6

ATPPGTSDPFPESNSPI [NS3 317-333]
T cell activation of HLA transgenic mice (SFC/10^6) IFN-γ ELISpot, A2 [2]: 151 ± 18 SFC/10^6

CYGGPWKLQHKWNGQDEV [NS3 78-95]
T cell activation of HLA transgenic mice (SFC/10^6) IFN-γ ELISpot, A2 [2]: 150 ± 17 SFC/10^6

DISWESDAEITGSSERV [NS2b 59-75]
T cell activation of HLA transgenic mice (SFC/10^6) IFN-γ ELISpot, DR2 [1]: 59 ± 12 SFC/10^6

DPFPESNSPISDLQTEI [NS3 324-340]
T cell activation of HLA transgenic mice (SFC/10^6) IFN-γ ELISpot, A2 [2]: 117 ± 20 SFC/10^6

ECHTCIYNMMGKREKK [NS5 448-463]
T cell activation of HLA transgenic mice (SFC/10^6) IFN-γ ELISpot, A2 [2]: 26 ± 7 SFC/10^6

EIPDVLNSLAVAWMILRA [NS2a 128-145]
T cell activation of HLA transgenic mice (SFC/10^6) IFN-γ ELISpot, DR2 [1]: 384 ± 125 SFC/10^6

EKVYTMDGEYRLRGEERK [NS3 515-532]
T cell activation of HLA transgenic mice (SFC/10^6) IFN-γ ELISpot, A2 [2]: 140 ± 24 SFC/10^6 | T cell activation of HLA transgenic mice (SFC/10^6) IFN-γ ELISpot, DR2 [1]: 95 ± 27 SFC/10^6

EMGANFKASRVIDSRKSV [NS3 413-430]
T cell activation of HLA transgenic mice (SFC/10^6) IFN-γ ELISpot, A2 [2]: 130 ± 15 SFC/10^6

ERKILRPRWIDARVYSDH [NS3 588-605]
T cell activation of HLA transgenic mice (SFC/10^6) IFN-γ ELISpot, DR2 [1]: 42 ± 4 SFC/10^6

ERKNFLELLRTADLPVWL [NS3 530-547]
T cell activation of HLA transgenic mice (SFC/10^6) IFN-γ ELISpot, A2 [2]: 127 ± 10 SFC/10^6

EYRLRGEERKNFLELLR [NS3 523-539]
T cell activation of HLA transgenic mice (SFC/10^6) IFN-γ ELISpot, A2 [2]: 57 ± 11 SFC/10^6 | T cell activation of HLA transgenic mice (SFC/10^6) IFN-γ ELISpot, DR2 [1]: 160 ± 48 SFC/10^6

GEFLLDLRPATAWSLYAV [NS4b 30-47]
T cell activation of HLA transgenic mice (SFC/10^6) IFN-γ ELISpot, DR2 [1]: 89 ± 21 SFC/10^6

GKTRRILPQIIKEAINRR [NS3 199-216]
T cell activation of HLA transgenic mice (SFC/10^6) IFN-γ ELISpot, DR2 [1]: 52 ± 6 SFC/10^6

GLFNPMILAAGLIACDPNR [NS2a 211-229]
T cell activation of HLA transgenic mice (SFC/10^6) IFN-γ ELISpot, DR2 [1]: 74 ± 23 SFC/10^6

GLTSTRMFLKVRESNTTE [NS1 161-178]
T cell activation of HLA transgenic mice (SFC/10^6) IFN-γ ELISpot, DR2 [1]: 134 ± 8 SFC/10^6

GQDEVQMIVVEPGKNVK [NS3 91-107]
T cell activation of HLA transgenic mice (SFC/10^6) IFN-γ ELISpot, A2 [2]: 156 ± 11 SFC/10^6

GRIGRNPSQVGDEYCY [NS3 460-475]
T cell activation of HLA transgenic mice (SFC/10^6) IFN-γ ELISpot, DR2 [1]: 123 ± 4 SFC/10^6

GSVKEDRLCYGGPWKLQH [NS3 70-87]
T cell activation of HLA transgenic mice (SFC/10^6) IFN-γ ELISpot, A2 [2]: 174 ± 13 SFC/10^6

GWLSCLSITWTLIKNMEK [NS4b 233-250]
T cell activation of HLA transgenic mice (SFC/10^6) IFN-γ ELISpot, DR2 [1]: 62 ± 6 SFC/10^6

IDPFQLGLLVVFLATQEV [NS2a 6-23]
T cell activation of HLA transgenic mice (SFC/10^6) IFN-γ ELISpot, DR2 [1]: 563 ± 41 SFC/10^6

IRYQTSAVPREHNGNEIV [NS3 241-258]
T cell activation of HLA transgenic mice (SFC/10^6) IFN-γ ELISpot, A2 [2]: 127 ± 18 SFC/10^6

IVVEPGKNVKNVQTKPGV [NS3 98-115]
T cell activation of HLA transgenic mice (SFC/10^6) IFN-γ ELISpot, A2 [2]: 145 ± 25 SFC/10^6

KVELGEAAAIFMTATPPG [NS3 304-321]
T cell activation of HLA transgenic mice (SFC/10^6) IFN-γ ELISpot, A2 [2]: 94 ± 22 SFC/10^6

LAVAWMILRAITFTTTSNV [NS2a 136-154]
T cell activation of HLA transgenic mice (SFC/10^6) IFN-γ ELISpot, DR2 [1]: 98 ± 22 SFC/10^6

LQHKWNGQDEVQMIVV [NS3 85-100]
T cell activation of HLA transgenic mice (SFC/10^6) IFN-γ ELISpot, A2 [2]: 72 ± 9 SFC/10^6

LQTEIPDRAWNSGYEWI [NS3 336-352]
T cell activation of HLA transgenic mice (SFC/10^6) IFN-γ ELISpot, A2 [2]: 167 ± 35 SFC/10^6

LSTKAACPTMGEAHNDKR [E 68-85]
T cell activation of HLA transgenic mice (SFC/10^6) IFN-γ ELISpot, A2 [2]: 372 ± 242 SFC/10^6

MATFKIQPVFMVASFLKA [NS2a 80-97]
T cell activation of HLA transgenic mice (SFC/10^6) IFN-γ ELISpot, DR2 [1]: 289 ± 83 SFC/10^6

MFAAFVISGKSTDMWIER [NS2b 39-56]
T cell activation of HLA transgenic mice (SFC/10^6) IFN-γ ELISpot, DR2 [1]: 47 ± 18 SFC/10^6

MLRKKQITVLDLHPGAGK [NS3 183-200]
T cell activation of HLA transgenic mice (SFC/10^6) IFN-γ ELISpot, A2 [2]: 62 ± 24 SFC/10^6 | T cell activation of HLA transgenic mice (SFC/10^6) IFN-γ ELISpot, DR2 [1]: 55 ± 2 SFC/10^6

NRRLRTAVLAPTRVVAA [NS3 214-230]
T cell activation of HLA transgenic mice (SFC/10^6) IFN-γ ELISpot, DR2 [1]: 146 ± 29 SFC/10^6

PAGFEPEMLRKKQITVL [NS3 176-192]
T cell activation of HLA transgenic mice (SFC/10^6) IFN-γ ELISpot, DR2 [1]: 59 ± 8 SFC/10^6

PIVDKNGDVIGLYGNGVI [NS3 138-155]
T cell activation of HLA transgenic mice (SFC/10^6) IFN-γ ELISpot, A2 [2]: 159 ± 10 SFC/10^6

PQIIKEAINRRLRTAVLA [NS3 206-223]
T cell activation of HLA transgenic mice (SFC/10^6) IFN-γ ELISpot, A2 [2]: 108 ± 22 SFC/10^6 | T cell activation of HLA transgenic mice (SFC/10^6) IFN-γ ELISpot, DR2 [1]: 323 ± 21 SFC/10^6

RAWNSGYEWITEYTGKTV [NS3 343-360]
T cell activation of HLA transgenic mice (SFC/10^6) IFN-γ ELISpot, A2 [2]: 55 ± 21 SFC/10^6

REDQRGSGQVVTYALNTF [NS5 598-615]
T cell activation of HLA transgenic mice (SFC/10^6) IFN-γ ELISpot, DR2 [1]: 252 ± 41 SFC/10^6

SRNSTHEMYWVSRASGNV [NS5 212-229]
T cell activation of HLA transgenic mice (SFC/10^6) IFN-γ ELISpot, DR2 [1]: 168 ± 13 SFC/10^6

STKATRYLVKTESWILR [prM 114-130]
T cell activation of HLA transgenic mice (SFC/10^6) IFN-γ ELISpot, DR2 [1]: 101 ± 33 SFC/10^6

SWITQGLLGALLLWMGI [E 458-474]
T cell activation of HLA transgenic mice (SFC/10^6) IFN-γ ELISpot, DR2 [1]: 51 ± 4 SFC/10^6

TDVLRYVILVGAAFA [NS2a 52-66]
T cell activation of HLA transgenic mice (SFC/10^6) IFN-γ ELISpot, DR2 [1]: 516 ± 9 SFC/10^6

THTLWGDGILESDLIIPV [NS1 228-245]
T cell activation of HLA transgenic mice (SFC/10^6) IFN-γ ELISpot, A2 [2]: 84 ± 47 SFC/10^6

TLTHRLMSPHRVPNYNLF [NS3 265-282]
T cell activation of HLA transgenic mice (SFC/10^6) IFN-γ ELISpot, A2 [2]: 150 ± 30 SFC/10^6 | T cell activation of HLA transgenic mice (SFC/10^6) IFN-γ ELISpot, DR2 [1]: 169 ± 16 SFC/10^6

TVWFVPSVKMGNEIALCL [NS3 359-376]
T cell activation of HLA transgenic mice (SFC/10^6) IFN-γ ELISpot, A2 [2]: 75 ± 44 SFC/10^6

VIGLYGNGVIMPNGSYI [NS3 146-162]
T cell activation of HLA transgenic mice (SFC/10^6) IFN-γ ELISpot, A2 [2]: 58 ± 38 SFC/10^6

VKVLCPYMPKVIEKMELL [NS5 181-198]
T cell activation of HLA transgenic mice (SFC/10^6) IFN-γ ELISpot, DR2 [1]: 122 ± 40 SFC/10^6

VLAPTRVVAAEMAEALR [NS3 221-237]
T cell activation of HLA transgenic mice (SFC/10^6) IFN-γ ELISpot, A2 [2]: 26 ± 4 SFC/10^6

VYRIMTRGLLGSYQAGA [NS3 22-38]
T cell activation of HLA transgenic mice (SFC/10^6) IFN-γ ELISpot, DR2 [1]: 155 ± 22 SFC/10^6

WNV E 68-85 peptide
IFN-γ ELISpot (SFC/10^6) [3]: 372 SFC/10^6

WNV E 450-467 peptide
IFN-γ ELISpot (SFC/10^6) [3]: 205 SFC/10^6 | IFN-γ ELISpot (SFC/10^6) [4]: 261 SFC/10^6

WNV E 458-474 peptide
IFN-γ ELISpot (SFC/10^6) [4]: 51 SFC/10^6

WNV NS1 161-178 peptide
IFN-γ ELISpot (SFC/10^6) [4]: 134 SFC/10^6
